Test results as given in a melting point compilation (Tetko et al.; mined from patent text by program, amines drawn as free bases though some values may be those of a salt).

With `CSc1nc(SC)nc(-c2cc(C(C)(C)C)c(O)c(C(C)(C)C)c2)n1` the melting point was 94 °C.
Work on `CC(=O)N1CC(CCN2CC=C(c3c[nH]c4cc(Cl)ccc34)CC2)c2ccccc21` (stereo not drawn) yielded a melting point of 169 to 170 °C.
`CCc1cnc2c(NC(=O)c3c(Cl)cccc3Cl)cccc2c1C(N)=O` gave a melting point of 247 to 248 °C.
Work on `CNC(=O)CCC(=NOCc1ccc(OCc2nc(-c3ccccc3)oc2C)cc1)c1ccccc1` yielded a melting point of 141 to 142 °C.
`O=C1C(C(c2cc(F)ccc2F)S(=O)(=O)c2ccc(Cl)cc2)CCCN1CCCO` (stereo not drawn) showed a melting point of 120 to 121 °C.
`COc1cc(CCCO)cc2c(O)c(C(=O)NCc3ccc(Cl)cc3)cnc12` showed a melting point of 201 to 204 °C.
In the case of `N#CNC(=S)Nc1ccccc1Cl`, the melting point is reported as 253 to 255 °C.
With `O=C(NCCO)c1cccc(-c2ccc3c(c2)N(Cc2cc(Cl)ccc2Cl)CC3)c1` the melting point was 149 to 150 °C.
Compound `O=C1NC(=O)C(C2CCCC2)C(=O)N1` has a melting point of 222 to 223 °C.
`CNC1NC(=O)N(C)C(=O)N1N` (stereo not drawn) gave a melting point of 225 to 227 °C.
`COc1nc2nc(SCc3ccccc3)nn2cc1C` gave a melting point of 145 to 146 °C.
Compound `O=S(=O)(NCC1CC1)c1cccc(-c2cc(-c3nc(-c4ccc(C(F)(F)F)cc4)cc(C(F)(F)F)n3)ccn2)c1` has a melting point of 134 °C.
For `CC(C)(C)NS(=O)(=O)c1cccc(NC(=O)c2cnn3c(C4CC4)cc(-c4ccc(C(F)(F)F)cc4)nc23)c1`, the melting point was 258 to 259 °C.
Compound `CCCCc1nnc(-c2ccco2)n1Cc1ccc([N+](=O)[O-])cc1` has a melting point of 91 to 92.5 °C.
Work on `CCC1CC2=CCCCC2C2CCC3(C)C(O)CCC3C12` (stereo not drawn) yielded a melting point of 155 to 157 °C.
In the case of `Nc1cccc(C(=O)NCc2ccccc2)c1`, the melting point is reported as 95 to 100 °C.
`CS(=O)(=O)c1nnc(-c2ccc(Cl)cc2)o1` gave a melting point of 159 to 160 °C.
In the case of `CC(OC(=O)C12CC3CC(CC(C3)C1)C2)c1ccncc1` (single isomer, unassigned; (-)), the melting point is reported as 164 to 166 °C.
`CSc1ccc2c(c1)C(=O)c1cc3ccccc3cc1C2=O` showed a melting point of 195 to 196 °C.
Compound `COCCOc1ccc(-c2ccc3c(c2)C=C(C(=O)Nc2ccc(CN(C)C4CCOCC4)cc2)CCS3(=O)=O)cc1` has a melting point of 227 to 231 °C.
`COC(=O)c1nc(C)ccc1OC` gave a melting point of 55 to 57 °C.
With `CCC(C)CNC(=O)c1ccc2cccc(Cc3ccc(C(=O)NS(=O)(=O)c4ccccc4C)cc3OC)c2c1` (stereo not drawn) the melting point was 204 °C.
In the case of `CN(C)c1ccc(-c2cn[nH]c2N)cc1`, the melting point is reported as 173 to 176 °C.
`CC(C)c1cccc(C(C)C)c1NC(=O)NC(c1ccccc1)c1ccccc1` gave a melting point of 245 to 246 °C.
Compound `COC(=O)[C@H](O)[C@@H](NC(=O)OC(C)(C)C)c1ccc(F)cc1` has a melting point of 125 °C.
For `CC(C)(NC(=O)Cc1cccc2ccccc12)C(O)c1ccccc1` (stereo not drawn), the melting point was 106 to 107 °C.
Work on `CCOC(=O)c1cc2cccc([N+](=O)[O-])c2n1COC` yielded a melting point of 62 to 63 °C.
Work on `N#Cc1nn(-c2c(Cl)cc(C(F)(F)F)cc2Cl)cc1C1(C(F)(F)F)CC1` yielded a melting point of 141 °C.
With `N#Cc1cc(NC(=O)c2cccn2-c2ccc(F)cc2)ccc1N1CCCCC1` the melting point was 158 to 159 °C.
For `O=S(=O)(Nc1cnc(Oc2cc3ccccc3cn2)c(Cl)c1)c1ccc(Cl)cc1Cl`, the melting point was 203 to 205 °C.
`CCCN(CCC)C(=O)n1cc(C)c2c1CC1(c3cccc(O)c3)CCN(CC)CC1C2` (stereo not drawn) gave a melting point of 151 to 153 °C.
Work on `CN(SN(CC#N)CC#N)C(=O)Oc1cccc2c1OC(C)(C)C2` yielded a melting point of 94 to 95 °C.
In the case of `COC(=O)Cc1ccc2nc(C(F)(F)F)cc(Cl)c2c1`, the melting point is reported as 108 to 109 °C.
Work on `COC(=O)c1ccc(OCC2CN(c3ccc([N+](=O)[O-])cc3)C(=O)O2)cc1` (stereo not drawn) yielded a melting point of 200 to 201 °C.
`O=S(=O)(Cl)c1ccc2cc(Oc3c(Cl)cc(C(F)(F)F)cc3Cl)ccc2c1` gave a melting point of 140 °C.
Compound `O=C(O)CCc1cn(Cc2ccc(OCc3ccc(-c4ccccc4)cn3)cc2)nc1-c1ccccc1` has a melting point of 149 to 150 °C.
Compound `CCN=C1SC(=NOC(=O)N(C)SC(Cl)(Cl)Cl)C(C)(C)S1` has a melting point of 69 to 71 °C.
For `c1ccc2nc(-c3cc4nccnc4[nH]3)ccc2c1`, the melting point was 293 to 295 °C.
`CCCN(CCCN1CCc2cc(OC)c(OC)cc2CC1=O)CCc1ccc(OC)c(OC)c1` gave a melting point of 56 to 70 °C.
For `COC(=O)CCC/C=C/c1ccc2cc(C)ccc2c1`, the melting point was 50 °C.
`O=C(Nc1ccc2c(c1)CN(C(=O)OCc1ccccc1)CC2)OCc1ccccc1` gave a melting point of 113 to 115 °C.
`CC(=O)OCC(ON1C(C)(C)CC(O)CC1(C)C)c1ccccc1` (stereo not drawn) gave a melting point of 68 to 69 °C.
Compound `CNc1ccc(OC)c([N+](=O)[O-])c1OC` has a melting point of 57 °C.
With `CS(=O)(=O)NCC(=O)N[C@@H]1CN2C(=O)N(c3cc(Cl)nc(Cl)c3)C(=O)[C@@]2(Cc2ccc(OC(F)(F)F)cc2)C1` the melting point was 105 °C.
Compound `CN(C)c1cc(-c2nnn(Cc3ccc(C(=O)O)cc3)n2)ccc1OC(=O)C(C)(C)C` has a melting point of 177 to 178 °C.
With `CCC1(C)Cc2c(C)c(Cl)c(C=O)c(C)c2C1` (stereo not drawn) the melting point was 89 to 90 °C.
With `CCOC(=O)c1[nH]cnc1CC` the melting point was 170 to 172 °C.
`CCOC(=O)CCCCc1cn(C(c2ccccc2)(c2ccccc2)c2ccccc2)cn1` showed a melting point of 84 to 86 °C.
`N#Cc1ccccc1-n1nc(C2CCN(C#N)CC2)c2ccccc21` showed a melting point of 188 to 190 °C.
`COCc1c(C(C)=O)ncc2c1c1cc(OCc3ccccc3)ccc1n2S(=O)(=O)c1ccc(C)cc1` showed a melting point of 173 to 175 °C.
For `O=Cc1c(F)cc(Br)cc1Br`, the melting point was 57 to 58 °C.
In the case of `CCOC(=O)c1ccc(N=C(Nc2ccc(C(=O)OCC)cc2)c2ccc(C#N)cc2)cc1`, the melting point is reported as 205 to 213 °C.
In the case of `O=C1CCC(C(=O)N2CCN(CC(=O)N3CCOCC3)CC2)N1` (stereo not drawn), the melting point is reported as 167 to 169 °C.
For `CN(C(=O)c1ccc2nonc2c1)C1CCN(C(=O)OC(C)(C)C)CC1`, the melting point was 98 to 100 °C.
Work on `Cc1ccc2[nH]c(=O)c(C(=O)NC3CCCCC3)c(O)c2c1` yielded a melting point of 269 °C.
In the case of `CC(=O)NCCC1=C(C(C)C)Cc2cnc3c(c21)CCO3`, the melting point is reported as 164 to 166 °C.
Compound `ON=C1CCN(CC2CCCO2)CC1` (stereo not drawn) has a melting point of 104 to 106 °C.
With `CCc1ccnc2c([N+](=O)[O-])cc(OC)cc12` the melting point was 158 to 159 °C.
With `CC(C)(C)NC(=O)N1CCn2c(C#N)c(-c3cccc(F)c3)c(C(N)=O)c2C1` the melting point was > 217 °C.
With `Cc1cc(C(=O)O)c(O)cc1C(N)C(=O)O` (stereo not drawn) the melting point was > 250 °C.
With `Nc1n[nH]c(-c2ccco2)n1` the melting point was 204 to 206 °C.
In the case of `Cc1cn(-c2cc(NC(=O)c3ccc(C)c(/C=C/n4cnc5c(N)ncnc54)c3)cc(C(F)(F)F)c2)cn1`, the melting point is reported as 258 °C.
For `CN1CCN(c2ccccc2C=CC(=O)Nc2ccc(C(F)(F)F)cc2)CC1`, the melting point was 207 to 209 °C.
With `COc1cc(OC)nc(Oc2cccc3c2C(=O)OC3F)n1` (stereo not drawn) the melting point was 172 to 174 °C.
In the case of `CCOC(=O)c1cc2cccc(N(C)S(=O)(=O)c3cccs3)c2[nH]1`, the melting point is reported as 164 to 165 °C.
In the case of `CC[C@H](C)C(OCc1ccccc1F)[C@H]1[C@H]([N+](=O)[O-])[C@@H](c2cccs2)N[C@@H]1C(=O)NCCC(=O)O` (stereo partly drawn), the melting point is reported as 94 to 96 °C.
`CC(C(=O)N(C)C)n1nc(-c2ccccc2)c(Br)c1Br` (stereo not drawn) showed a melting point of 132 to 134 °C.
Compound `O=C(/C=C/c1cc(O)c(O)c([N+](=O)[O-])c1)CCCCC(=O)Nc1ccc(C(F)(F)F)cc1` has a melting point of 194 to 197 °C.
Compound `CC(C)(C)OC(=O)NC[C@H]1CC[C@H](C#N)CC1` has a melting point of 100 to 101 °C.
`CCC1(C)CN(c2c(F)c(N)c3c(=O)c(C(=O)O)cn(C4CC4)c3c2OC)CCC1N` (stereo not drawn) gave a melting point of 210 °C.
`CNC(=O)NS(=O)(=O)c1cc2c(cc1OC)OCC(NC(=O)c1cc(Cl)ccc1OC)C2` (stereo not drawn) showed a melting point of 256 to 257 °C.
`Cc1cc(C(F)(F)F)cc(Oc2ccc(CCNc3ncnc4scnc34)cc2)n1` gave a melting point of 111 to 112 °C.
For `CC(=O)N(C(C)=O)c1ccc(C2=NN(C(C)=O)C(C)Cc3cc4c(cc32)OCO4)cc1` (stereo not drawn), the melting point was 224 to 227 °C.
Work on `O=C(O)CCC(=NOCc1ccc(OCc2cn3ccccc3n2)cc1)c1ccccc1` yielded a melting point of 180 to 182 °C.
For `COc1ccc(CCCC(=O)O)c(Cl)c1Cl`, the melting point was 120 to 123 °C.
Work on `CSc1nc2c(cc1F)c(=O)[nH]c(=O)n2C1CC1` yielded a melting point of 220 to 222 °C.
Work on `Cc1c(Cl)cccc1S(=O)(=O)Nc1ccc2oncc2c1` yielded a melting point of 112 °C.
Compound `Cn1nc(O)cc1C(F)F` has a melting point of 115 to 119 °C.
For `O=C(O)c1cnc(O)cc1Cl`, the melting point was 299 to 300 °C.
For `COc1ccc(-c2cc3cc(Cl)ccc3o2)cc1`, the melting point was 183 to 185 °C.
Compound `CCOC(=O)C1=C(COCCNc2nccs2)NC(C)=C(C(=O)OC)C1c1ccccc1Cl` (stereo not drawn) has a melting point of 134 °C.
`Cc1ccc(N(CCN2CCC(C(=O)c3ccc(F)cc3)CC2)C(=O)c2ccc([N+](=O)[O-])cc2)cc1` gave a melting point of 175 to 178 °C.
For `CCOC(=O)CNc1cnc(-c2ccc(OCc3ccccc3)c(C34CC5CC(CC(C5)C3)C4)c2)nc1`, the melting point was 153 to 156 °C.
`CN(C)CCc1ccc(NC=O)c2[nH]ncc12` gave a melting point of 210 to 211 °C.
`Cc1noc(NS(=O)(=O)c2ccccc2-c2ccc(-c3ncco3)cc2C(O)c2ncc(-c3ccccc3)o2)c1C` (stereo not drawn) gave a melting point of 125 to 135 °C.
For `CCOc1ccc(N(c2ccccc2)C2(c3ccc(N(CC)Cc4ccccc4)cc3)OC(=O)c3ccccc32)cc1` (stereo not drawn), the melting point was 163 to 173 °C.
`CCCCCCCCOC(=O)Nc1ccccc1C1Cc2ccccc2N1` (stereo not drawn) gave a melting point of 99 to 102 °C.
With `COc1ccc2c(=O)c(CSC)cn(C)c2c1` the melting point was 135 to 136 °C.
With `COc1ccc2c(c1)SSSSS2` the melting point was 97 to 98 °C.
With `Cc1nc2c(OCc3ccccc3)cccn2c1CC#N` the melting point was 163 to 166 °C.
Compound `CCCCCCCCCCCCCCCCCC(=O)NCCOCCn1c(CCOC)nc2c(N)nc3ccccc3c21` has a melting point of 80 to 83 °C.
Work on `Cc1c(Cl)cc(C(C)C)c2oc(SCCN3CCN(CC(=O)Nc4c(C(C)C)cccc4C(C)C)CC3)nc12` yielded a melting point of 162 to 163 °C.
Compound `Cc1nn(-c2ccc(C(F)(F)F)cn2)cc1CCCOc1cc(CC(=O)O)n(C)n1` has a melting point of 143 to 144 °C.
Work on `CN1C(=O)CN(NC(=O)CN)C(c2ccccc2)c2cc(Cl)ccc21` (stereo not drawn) yielded a melting point of 173 to 175 °C.
In the case of `Nc1cc(Cl)c(Oc2ccc(Cl)cc2)cc1C(=O)O`, the melting point is reported as 160 to 170 °C.
In the case of `CC(O)c1nc(NCCCOc2cccc(CN3CCCCC3)c2)n(C)n1` (stereo not drawn), the melting point is reported as 67 to 68 °C.
`CC(C)(C)S(=O)(=O)CCOCCn1ccc2ncnc(Nc3ccc(Oc4cccc(C(F)(F)F)c4)c(Cl)c3)c21` showed a melting point of 79.5 to 81.5 °C.
`CCCc1cc(C(=O)OC)ccc1OCCCCCOc1ccc2c(c1CCC)OC(C(=O)OC)CC2` (stereo not drawn) showed a melting point of 63 to 64 °C.
